Data taken from PubChem BioAssay (NCI).
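GI50: concentration for 50% inhibition of growth. TGI: concentration producing complete growth inhibition.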

What was measured:
Experiment in all cases: growth of human tumour cells (NCI), 384-well format
786-0 renal = tested on: 786-0 renal
SF-268 CNS = tested on: SF-268 CNS
SR leukemia = tested on: SR leukemia
HCT-15 colon = tested on: HCT-15 colon
OVCAR-3 ovarian = tested on: OVCAR-3 ovarian
HOP-92 NSCLC = tested on: HOP-92 NSCLC
KM12 colon = tested on: KM12 colon
IGROV1 ovarian = tested on: IGROV1 ovarian
OVCAR-5 ovarian = tested on: OVCAR-5 ovarian
COLO 205 colon = tested on: COLO 205 colon
OVCAR-8 ovarian = tested on: OVCAR-8 ovarian
CAKI-1 renal = tested on: CAKI-1 renal
SF-539 CNS = tested on: SF-539 CNS
NCI-H460 NSCLC = tested on: NCI-H460 NSCLC
M14 melanoma = tested on: M14 melanoma
SNB-75 CNS = tested on: SNB-75 CNS
SNB-19 CNS = tested on: SNB-19 CNS
MALME-3M melanoma = tested on: MALME-3M melanoma
OVCAR-4 ovarian = tested on: OVCAR-4 ovarian
PC-3 prostate = tested on: PC-3 prostate
SK-MEL-28 melanoma = tested on: SK-MEL-28 melanoma
MOLT-4 leukemia = tested on: MOLT-4 leukemia
UO-31 renal = tested on: UO-31 renal
A498 renal = tested on: A498 renal
NCI-H522 lung = tested on: NCI-H522 lung
BT-549 breast = tested on: BT-549 breast
NCI-H23 lung = tested on: NCI-H23 lung
SW-620 colon = tested on: SW-620 colon
RPMI-8226 leukemia = tested on: RPMI-8226 leukemia
SF-295 CNS = tested on: SF-295 CNS
UACC-257 melanoma = tested on: UACC-257 melanoma
NCI-H226 lung = tested on: NCI-H226 lung
ACHN renal = tested on: ACHN renal
CCRF-CEM leukemia = tested on: CCRF-CEM leukemia
HT29 colon = tested on: HT29 colon
TK-10 renal = tested on: TK-10 renal
NCI-H322M lung = tested on: NCI-H322M lung
EKVX NSCLC = tested on: EKVX NSCLC
HCC-2998 colon = tested on: HCC-2998 colon
A549 NSCLC = tested on: A549 NSCLC
MDA-MB-435 melanoma = tested on: MDA-MB-435 melanoma
MDA-MB-468 breast = tested on: MDA-MB-468 breast
LOX IMVI melanoma = tested on: LOX IMVI melanoma
U251 glioblastoma = tested on: U251 glioblastoma
NCI/ADR-RES ovarian = tested on: NCI/ADR-RES ovarian
UACC-62 melanoma = tested on: UACC-62 melanoma
HS 578T breast = tested on: HS 578T breast
HL-60(TB) leukemia = tested on: HL-60(TB) leukemia
MCF7 breast = tested on: MCF7 breast
K-562 leukemia = tested on: K-562 leukemia
RXF 393 renal = tested on: RXF 393 renal
SN12C renal = tested on: SN12C renal
MDA-MB-231 breast = tested on: MDA-MB-231 breast
DU-145 prostate = tested on: DU-145 prostate
HOP-62 NSCLC = tested on: HOP-62 NSCLC
SK-OV-3 ovarian = tested on: SK-OV-3 ovarian
T-47D breast = tested on: T-47D breast
SK-MEL-5 melanoma = tested on: SK-MEL-5 melanoma

C=CC(=O)Nc1cccc(Oc2nc(Nc3ccc(N4CCN(C)CC4)cc3OC)ncc2Cl)c1
GI50 ([…]-0 renal): 1180 nM | TGI (786-0 renal): 2420 nM | GI50 (SF-268 CNS): 1460 nM | TGI (SF-268 CNS): 2790 nM | GI50 (SR leukemia): 1560 nM | TGI (SR leukemia): 2890 nM | GI50 (HCT-15 colon): 1340 nM | TGI (HCT-15 colon): 2640 nM | GI50 (OVCAR-3 ovarian): 1250 nM | TGI (OVCAR-3 ovarian): 2520 nM | GI50 (HOP-92 NSCLC): 1100 nM | TGI (HOP-92 NSCLC): 2340 nM | GI50 (KM12 colon): 1700 nM | TGI (KM12 colon): 3090 nM | GI50 (IGROV1 ovarian): 754 nM | TGI (IGROV1 ovarian): 2040 nM | GI50 (OVCAR-5 ovarian): 1550 nM | TGI (OVCAR-5 ovarian): 3390 nM | GI50 (COLO 205 colon): 1720 nM | TGI (COLO 205 colon): 3100 nM | GI50 (OVCAR-8 ovarian): 1440 nM | TGI (OVCAR-8 ovarian): 2760 nM | GI50 (CAKI-1 renal): 765 nM | TGI (CAKI-1 renal): 2050 nM | GI50 (SF-539 CNS): 1540 nM | TGI (SF-539 CNS): 2880 nM | GI50 (NCI-H460 NSCLC): 1640 nM | TGI (NCI-H460 NSCLC): 3020 nM | GI50 (M14 melanoma): 1770 nM | TGI (M14 melanoma): 3160 nM | GI50 (SNB-75 CNS): 1440 nM | TGI (SNB-75 CNS): 2890 nM | GI50 (SNB-19 CNS): 2600 nM | TGI (SNB-19 CNS): 8340 nM | GI50 (MALME-3M melanoma): 1530 nM | TGI (MALME-3M melanoma): 2860 nM | GI50 (OVCAR-4 ovarian): 1540 nM | TGI (OVCAR-4 ovarian): 4150 nM | GI50 (PC-3 prostate): 1700 nM | TGI (PC-3 prostate): 3140 nM | GI50 (SK-MEL-28 melanoma): 1670 nM | TGI (SK-MEL-28 melanoma): 3030 nM | GI50 (MOLT-4 leukemia): 1500 nM | TGI (MOLT-4 leukemia): 2820 nM | GI50 (UO-31 renal): 1350 nM | TGI (UO-31 renal): 2660 nM | GI50 (A498 renal): 517 nM | TGI (A498 renal): 1890 nM | GI50 (NCI-H522 lung): 257 nM | TGI (NCI-H522 lung): 1250 nM | GI50 (BT-549 breast): 1300 nM | TGI (BT-549 breast): 2590 nM | GI50 (NCI-H23 lung): 1830 nM | TGI (NCI-H23 lung): 3860 nM | GI50 (SW-620 colon): 1720 nM | TGI (SW-620 colon): 3110 nM | GI50 (RPMI-8226 leukemia): 1160 nM | TGI (RPMI-8226 leukemia): 2380 nM | GI50 (SF-295 CNS): 1870 nM | TGI (SF-295 CNS): 3450 nM | GI50 (UACC-257 melanoma): 1210 nM | TGI (UACC-257 melanoma): 2460 nM | GI50 (NCI-H226 lung): 1130 nM | TGI (NCI-H226 lung): 2520 nM | GI50 (ACHN renal): 440 nM | TGI (ACHN renal): 1710 nM | GI50 (CCRF-CEM leukemia): 1420 nM | TGI (CCRF-CEM leukemia): 2720 nM | GI50 (HT29 colon): 1650 nM | TGI (HT29 colon): 3020 nM | GI50 (TK-10 renal): 788 nM | TGI (TK-10 renal): 2060 nM | GI50 (NCI-H322M lung): 354 nM | TGI (NCI-H322M lung): 1670 nM | GI50 (EKVX NSCLC): 374 nM | TGI (EKVX NSCLC): 1650 nM | GI50 (HCC-2998 colon): 1570 nM | TGI (HCC-2998 colon): 2930 nM | GI50 (A549 NSCLC): 1230 nM | TGI (A549 NSCLC): 2480 nM | GI50 (MDA-MB-435 melanoma): 1710 nM | TGI (MDA-MB-435 melanoma): 3100 nM | GI50 (MDA-MB-468 breast): 16.7 nM | TGI (MDA-MB-468 breast): 90.9 nM | GI50 (LOX IMVI melanoma): 1660 nM | TGI (LOX IMVI melanoma): 3030 nM | GI50 (U251 glioblastoma): 1690 nM | TGI (U251 glioblastoma): 3090 nM | GI50 (NCI/ADR-RES ovarian): 1510 nM | TGI (NCI/ADR-RES ovarian): 2850 nM | GI50 (UACC-62 melanoma): 1560 nM | TGI (UACC-62 melanoma): 2900 nM | GI50 (HS 578T breast): 1370 nM | TGI (HS 578T breast): 2670 nM | GI50 (HL-60(TB) leukemia): 1070 nM | TGI (HL-60(TB) leukemia): 2260 nM | GI50 (MCF7 breast): 1140 nM | TGI (MCF7 breast): 2360 nM | GI50 (K-562 leukemia): 1630 nM | TGI (K-562 leukemia): 3000 nM | GI50 (RXF 393 renal): 1290 nM | TGI (RXF 393 renal): 2570 nM | GI50 (SN12C renal): 1090 nM | TGI (SN12C renal): 2610 nM | GI50 (MDA-MB-231 breast): 1560 nM | TGI (MDA-MB-231 breast): 2950 nM | GI50 (DU-145 prostate): 1320 nM | TGI (DU-145 prostate): 3080 nM | GI50 (HOP-62 NSCLC): 1800 nM | TGI (HOP-62 NSCLC): 3510 nM | GI50 (SK-OV-3 ovarian): 1040 nM | TGI (SK-OV-3 ovarian): 2230 nM | GI50 (T-47D breast): 1110 nM | TGI (T-47D breast): 2320 nM | GI50 (SK-MEL-5 melanoma): 1570 nM | TGI (SK-MEL-5 melanoma): 2920 nM
